Drawing on patent US8580794B2 (AbbVie Inc., priority 2009, dated 2013), this text covers Ki for 13 molecules.

This experiment concerns the target GST-Bc1-2 (Homo sapiens, UniProt P10415). Briefly: Time Resolved-Fluorescence Resonance Energy Transfer (TR-FRET) Bcl-2 binding assay with F-Bak peptide probe.
Where [1] appears, read: GST-Bcl-2 1 nM, F-Bak probe 100 nM, Tb-anti-GST 1 nM, '<' = below limit of detection, read-out: TR-FRET Bcl-2 Binding Ki.
The mark [2] stands for this setting: Table 4, selected compounds of Ser. No. 12/631,404, read-out: Bcl-2 FRET Ki.
[3] abbreviates: Table 5, direct comparison Z=N vs Z=C analogs, read-out: Bcl-2 FRET ki.

Molecules are shown by their SMILES. Like-named read-outs stand apart in the source and are kept apart here.

GST-Bc1-2, sequence (P10415 whole entry): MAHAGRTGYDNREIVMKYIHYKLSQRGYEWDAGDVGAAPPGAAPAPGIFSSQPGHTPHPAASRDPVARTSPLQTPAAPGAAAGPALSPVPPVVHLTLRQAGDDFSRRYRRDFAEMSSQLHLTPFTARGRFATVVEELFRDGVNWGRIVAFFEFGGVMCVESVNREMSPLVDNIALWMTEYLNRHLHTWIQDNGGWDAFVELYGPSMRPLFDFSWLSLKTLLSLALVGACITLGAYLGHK

`COCCNc1ccc(S(=O)(=O)NC(=O)c2ccc(N3CCN(CC4=C(c5ccc(Cl)cc5)CC(C)(C)CC4)CC3)cc2Oc2ccc3[nH]ccc3c2)cc1[N+](=O)[O-]` [Example 20, 4-(4-{[2-(4-chlorophenyl)-4,4-dimethylcyclohex-1-en-1-yl]methyl}piperazin-1-yl)-2-(1H-indol-5-yloxy)-N-({4-[(2-methoxyethyl)amino]-3-nitrophenyl}sulfonyl)benzamide]: the Ki runs as follows: under setting [1], 0.181 nM; under setting [2], 0.181 nM; under setting [3], 0.181 nM.
Regarding `CC1(C)CC(c2ccc(Cl)cc2)=C(CN2CCN(c3ccc(C(=O)NS(=O)(=O)c4ccc(NCC5CCOCC5)c([N+](=O)[O-])c4)c(Oc4ccc5[nH]ccc5c4)c3)CC2)CO1` [Example 23, 4-(4-{[4-(4-chlorophenyl)-6,6-dimethyl-5,6-dihydro-2H-pyran-3-yl]methyl}piperazin-1-yl)-2-(1H-indol-5-yloxy)-N-({3-nitro-4-[(tetrahydro-2H-pyran-4-ylmethyl)amino]phenyl}sulfonyl)benzamide], the Ki is, setting by setting: under setting [1], 0.083 nM; under setting [2], 0.083 nM; under setting [3], 0.083 nM.
On to `CC1(C)CCC(CN2CCN(c3ccc(C(=O)NS(=O)(=O)c4ccc(OCC5CCOCC5)c([N+](=O)[O-])c4)c(Oc4cnc5[nH]ccc5c4)c3)CC2)=C(c2ccc(Cl)cc2)C1` [Example 24, 4-(4-{[2-(4-chlorophenyl)-4,4-dimethylcyclohex-1-en-1-yl]methyl}piperazin-1-yl)-N-{[3-nitro-4-(tetrahydro-2H-pyran-4-ylmethoxy)phenyl]sulfonyl}-2-(1H-pyrrolo[2,3-b]pyridin-5-yloxy)benzamide], for which the Ki under setting [1] was under 0.01 nM.
On the same count and under the same terms, then `CC1(C)CCC(CN2CCN(c3ccc(C(=O)NS(=O)(=O)c4ccc(NCC5COCCO5)c([N+](=O)[O-])c4)c(Oc4cnc5[nH]ccc5c4)c3)CC2)=C(c2ccc(Cl)cc2)C1` (centres unmarked) [Example 25, 4-(4-{[2-(4-chlorophenyl)-4,4-dimethylcyclohex-1-en-1-yl]methyl}piperazin-1-yl)-N-({4-[(1,4-dioxan-2-ylmethyl)amino]-3-nitrophenyl}sulfonyl)-2-(1H-pyrrolo[2,3-b]pyridin-5-yloxy)benzamide], with under 0.01 nM; and `CC1(C)CCC(CN2CCN(c3ccc(C(=O)NS(=O)(=O)c4ccc(NCC(F)(F)F)c([N+](=O)[O-])c4)c(Oc4cnc5[nH]ccc5c4)c3)CC2)=C(c2ccc(Cl)cc2)C1` [Example 26, 4-(4-{[2-(4-chlorophenyl)-4,4-dimethylcyclohex-1-en-1-yl]methyl}piperazin-1-yl)-N-({3-nitro-4-[(2,2,2-trifluoroethyl)amino]phenyl}sulfonyl)-2-(1H-pyrrolo[2,3-b]pyridin-5-yloxy)benzamide], with 0.011 nM; and `CC1(C)CCC(CN2CCN(c3ccc(C(=O)NS(=O)(=O)c4ccc(NCCC(F)(F)F)c([N+](=O)[O-])c4)c(Oc4cnc5[nH]ccc5c4)c3)CC2)=C(c2ccc(Cl)cc2)C1` [Example 27, 4-(4-{[2-(4-chlorophenyl)-4,4-dimethylcyclohex-1-en-1-yl]methyl}piperazin-1-yl)-N-({3-nitro-4-[(3,3,3-trifluoropropyl)amino]phenyl}sulfonyl)-2-(1H-pyrrolo[2,3-b]pyridin-5-yloxy)benzamide], with 0.134 nM.
On to `CC1(C)CCC(CN2CCN(c3ccc(C(=O)NS(=O)(=O)c4ccc(OC[C@@H]5COCCO5)c([N+](=O)[O-])c4)c(Oc4cnc5[nH]ccc5c4)c3)CC2)=C(c2ccc(Cl)cc2)C1` [Example 28, 4-(4-{[2-(4-chlorophenyl)-4,4-dimethylcyclohex-1-en-1-yl]methyl}piperazin-1-yl)-N-({4-[(2S)-1,4-dioxan-2-ylmethoxy]-3-nitrophenyl}sulfonyl)-2-(1H-pyrrolo[2,3-b]pyridin-5-yloxy)benzamide], for which, under setting [1], the Ki was under 0.01 nM.
Take `CO[C@H]1CC[C@@H](CNc2ccc(S(=O)(=O)NC(=O)c3ccc(N4CCN(CC5=C(c6ccc(Cl)cc6)CC(C)(C)CC5)CC4)cc3Oc3cnc4[nH]ccc4c3)cc2[N+](=O)[O-])CC1` [Example 29, Cis-4-(4-{[2-(4-chlorophenyl)-4,4-dimethylcyclohex-1-en-1-yl]methyl}piperazin-1-yl)-N-[(4-{[(4-methoxycyclohexyl)methyl]amino}-3-nitrophenyl)sulfonyl]-2-(1H-pyrrolo[2,3-b]pyridin-5-yloxy)benzamide]: the Ki under setting [1] is under 0.01 nM.
Same read-out and setting: under `CC1(C)CCC(CN2CCN(c3ccc(C(=O)NS(=O)(=O)c4ccc(OC[C@H]5COCCO5)c([N+](=O)[O-])c4)c(Oc4cnc5[nH]ccc5c4)c3)CC2)=C(c2ccc(Cl)cc2)C1` [Example 30, 4-(4-{[2-(4-chlorophenyl)-4,4-dimethylcyclohex-1-en-1-yl]methyl}piperazin-1-yl)-N-({4-[(2R)-1,4-dioxan-2-ylmethoxy]-3-nitrophenyl}sulfonyl)-2-(1H-pyrrolo[2,3-b]pyridin-5-yloxy)benzamide] stands under 0.01 nM; under `CC1(C)CC(c2ccc(Cl)cc2)=C(CN2CCN(c3ccc(C(=O)NS(=O)(=O)c4ccc(NCC5COCCO5)c([N+](=O)[O-])c4)c(Oc4cnc5[nH]ccc5c4)c3)CC2)CO1` (centres unmarked) [Example 31, 4-(4-{[4-(4-chlorophenyl)-6,6-dimethyl-5,6-dihydro-2H-pyran-3-yl]methyl}piperazin-1-yl)-N-({4-[(1,4-dioxan-2-ylmethyl)amino]-3-nitrophenyl}sulfonyl)-2-(1H-pyrrolo[2,3-b]pyridin-5-yloxy)benzamide], under 0.01 nM.
The same measure, in the same setting: under `CC1(C)CC(c2ccc(Cl)cc2)=C(CN2CCN(c3ccc(C(=O)NS(=O)(=O)c4ccc(OCC5COCCO5)c([N+](=O)[O-])c4)c(Oc4cnc5[nH]ccc5c4)c3)CC2)CO1` (centres unmarked) [Example 32, 4-(4-{[4-(4-chlorophenyl)-6,6-dimethyl-5,6-dihydro-2H-pyran-3-yl]methyl}piperazin-1-yl)-N-{[4-(1,4-dioxan-2-ylmethoxy)-3-nitrophenyl]sulfonyl}-2-(1H-pyrrolo[2,3-b]pyridin-5-yloxy)benzamide] stands under 0.01 nM.
Turning to `CC1(C)CC(c2ccc(Cl)cc2)=C(CN2CCN(c3ccc(C(=O)NS(=O)(=O)c4ccc(N[C@H]5CC[C@H](N6CCOCC6)CC5)c([N+](=O)[O-])c4)c(Oc4cnc5[nH]ccc5c4)c3)CC2)CO1` [Example 33, Trans-4-(4-{[4-(4-chlorophenyl)-6,6-dimethyl-5,6-dihydro-2H-pyran-3-yl]methyl}piperazin-1-yl)-N-({4-[(4-morpholin-4-ylcyclohexyl)amino]-3-nitrophenyl}sulfonyl)-2-(1H-pyrrolo[2,3-b]pyridin-5-yloxy)benzamide], the Ki under setting [1] is under 0.01 nM.
Turning to `CO[C@H]1CC[C@H](CNc2ccc(S(=O)(=O)NC(=O)c3ccc(N4CCN(CC5=C(c6ccc(Cl)cc6)CC(C)(C)CC5)CC4)cc3Oc3cnc4[nH]ccc4c3)cc2[N+](=O)[O-])CC1` [Example 34, Trans-4-(4-{[2-(4-chlorophenyl)-4,4-dimethylcyclohex-1-en-1-yl]methyl}piperazin-1-yl)-N-[(4-{[(4-methoxycyclohexyl)methyl]amino}-3-nitrophenyl)sulfonyl]-2-(1H-pyrrolo[2,3-b]pyridin-5-yloxy)benzamide], under setting [1], the Ki came out at 0.01 nM.
